Literature values in patent US10941351B2, “Layer-separation method of spent caustic solution” (SK Innovation Co., Ltd., priority 2016, dated 2021).

Settings: at 25° C.

Water solubility: 460 µg/mL
Structure (SMILES): CCCCCCCCO [n-Octanol, n-octanol]
